Experimental data published in patent US7825256B2, “Inducible nitric oxide synthase dimerization inhibitors” (Kalypsys, Inc., priority 2004, dated 2010).

What was measured:
hnNOS = molecular target: T1, hnNOS (Homo sapiens, UniProt P29475); assay: DAN assay, hnNOS expressed in transiently transfected HEK293 cells; type: cell-based; conditions: HEK293 cells transiently transfected with hnNOS
T1 construct: expressed in transfected cells; host or cells: HEK293
Source text: (§1) The source of nitric oxide synthase (NOS) enzyme can be generated in several ways including induction of endogenous iNOS using cytokines and/or lipopolysaccharide (LPS) in various cell types known in the art. Alternatively, the gene encoding the enzyme can be cloned and the enzyme can be generated in cells via heterologous expression from a transient or stable expression plasmid with suitable features for protein expression as are known in the art. Enzymatic activity (nitric oxide production) is calcium independent for iNOS, while the constitutive NOS isoforms, nNOS and eNOS, become active with the addition of various cofactors added to cellular media or extract as are well known in the art. Enzymes specified in Table 1 were expressed in HEK293 cells transiently transfected with the indicated NOS isoform.
(§2) A major metabolic pathway for nitric oxide is to nitrate and nitrite, which are stable metabolites within tissue culture, tissue, plasma, and urine (S Moncada, A Higgs, N Eng J Med 329, 2002 (1993)).
(§3) The level of nitrate or nitrite in the specimen can be quantified by any method known in the art which provides adequate sensitivity and reproducibility. A variety of protocols have also been described for detecting and quantifying nitrite and nitrate levels in biological fluids by ion chromatography (e.g., S A Everett et al., J. Chromatogr. 706, 437 (1995); J M Monaghan et al., J. Chromatogr. 770, 143 (1997)), high-performance liquid chromatography (e.g., M Kelm et al., Cardiovasc. Res. 41, 765 (1999)), and capillary electrophoresis (M A Friedberg et al., J. Chromatogr. 781, 491 (1997)). […] Using 2,3-diaminonaphthalene (“DAN”), researchers have developed a rapid, quantitative fluorometric assay that can detect from 10 nM to 10 μM nitrite and is compatible with a multi-well microplate format. […]
(§4) A specimen can be processed prior to determination of nitrate or nitrite as required by the quantification method, or in order to improve the results, or for the convenience of the investigator. […]

heNOS = molecular target: T2, heNOS (Homo sapiens, UniProt P29474); assay: DAN assay, heNOS expressed in transiently transfected HEK293 cells; type: cell-based; conditions: HEK293 cells transiently transfected with heNOS
T2 construct: expressed in transfected cells; host or cells: HEK293
T2 sequence (P29474 2-1203 limits assumed): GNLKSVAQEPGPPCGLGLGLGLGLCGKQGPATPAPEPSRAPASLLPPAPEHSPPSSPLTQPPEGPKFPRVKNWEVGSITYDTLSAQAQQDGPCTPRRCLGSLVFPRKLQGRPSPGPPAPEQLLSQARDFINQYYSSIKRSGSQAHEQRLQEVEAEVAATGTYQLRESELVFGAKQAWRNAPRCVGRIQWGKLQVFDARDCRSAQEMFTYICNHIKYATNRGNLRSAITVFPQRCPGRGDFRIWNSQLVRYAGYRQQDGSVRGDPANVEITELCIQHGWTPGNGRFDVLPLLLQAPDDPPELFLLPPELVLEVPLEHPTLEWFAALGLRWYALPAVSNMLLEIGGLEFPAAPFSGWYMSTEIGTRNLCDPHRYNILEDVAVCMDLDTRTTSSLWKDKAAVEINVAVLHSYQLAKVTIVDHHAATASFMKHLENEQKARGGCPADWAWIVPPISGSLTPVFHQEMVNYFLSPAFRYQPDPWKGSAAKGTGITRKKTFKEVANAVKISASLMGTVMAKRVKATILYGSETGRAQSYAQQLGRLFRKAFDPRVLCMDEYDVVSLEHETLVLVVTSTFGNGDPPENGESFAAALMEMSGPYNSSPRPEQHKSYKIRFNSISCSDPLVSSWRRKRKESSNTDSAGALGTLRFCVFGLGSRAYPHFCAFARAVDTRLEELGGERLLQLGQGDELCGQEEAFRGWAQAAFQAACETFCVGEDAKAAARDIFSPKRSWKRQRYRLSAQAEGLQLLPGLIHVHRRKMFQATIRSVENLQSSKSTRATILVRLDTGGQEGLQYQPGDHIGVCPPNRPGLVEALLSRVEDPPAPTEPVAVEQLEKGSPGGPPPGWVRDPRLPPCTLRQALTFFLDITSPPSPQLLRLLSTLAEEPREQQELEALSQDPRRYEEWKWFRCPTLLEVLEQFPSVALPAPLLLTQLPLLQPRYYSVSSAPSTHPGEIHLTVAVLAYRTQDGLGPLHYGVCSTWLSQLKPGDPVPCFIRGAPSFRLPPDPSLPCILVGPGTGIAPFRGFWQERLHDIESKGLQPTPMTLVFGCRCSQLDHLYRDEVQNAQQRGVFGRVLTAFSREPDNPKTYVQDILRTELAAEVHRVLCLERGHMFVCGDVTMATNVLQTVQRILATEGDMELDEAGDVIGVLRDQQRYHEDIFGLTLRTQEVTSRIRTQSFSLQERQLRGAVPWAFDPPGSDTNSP
Source text: as §1, §2, §3, §4

T1 sequence (P29475 whole entry): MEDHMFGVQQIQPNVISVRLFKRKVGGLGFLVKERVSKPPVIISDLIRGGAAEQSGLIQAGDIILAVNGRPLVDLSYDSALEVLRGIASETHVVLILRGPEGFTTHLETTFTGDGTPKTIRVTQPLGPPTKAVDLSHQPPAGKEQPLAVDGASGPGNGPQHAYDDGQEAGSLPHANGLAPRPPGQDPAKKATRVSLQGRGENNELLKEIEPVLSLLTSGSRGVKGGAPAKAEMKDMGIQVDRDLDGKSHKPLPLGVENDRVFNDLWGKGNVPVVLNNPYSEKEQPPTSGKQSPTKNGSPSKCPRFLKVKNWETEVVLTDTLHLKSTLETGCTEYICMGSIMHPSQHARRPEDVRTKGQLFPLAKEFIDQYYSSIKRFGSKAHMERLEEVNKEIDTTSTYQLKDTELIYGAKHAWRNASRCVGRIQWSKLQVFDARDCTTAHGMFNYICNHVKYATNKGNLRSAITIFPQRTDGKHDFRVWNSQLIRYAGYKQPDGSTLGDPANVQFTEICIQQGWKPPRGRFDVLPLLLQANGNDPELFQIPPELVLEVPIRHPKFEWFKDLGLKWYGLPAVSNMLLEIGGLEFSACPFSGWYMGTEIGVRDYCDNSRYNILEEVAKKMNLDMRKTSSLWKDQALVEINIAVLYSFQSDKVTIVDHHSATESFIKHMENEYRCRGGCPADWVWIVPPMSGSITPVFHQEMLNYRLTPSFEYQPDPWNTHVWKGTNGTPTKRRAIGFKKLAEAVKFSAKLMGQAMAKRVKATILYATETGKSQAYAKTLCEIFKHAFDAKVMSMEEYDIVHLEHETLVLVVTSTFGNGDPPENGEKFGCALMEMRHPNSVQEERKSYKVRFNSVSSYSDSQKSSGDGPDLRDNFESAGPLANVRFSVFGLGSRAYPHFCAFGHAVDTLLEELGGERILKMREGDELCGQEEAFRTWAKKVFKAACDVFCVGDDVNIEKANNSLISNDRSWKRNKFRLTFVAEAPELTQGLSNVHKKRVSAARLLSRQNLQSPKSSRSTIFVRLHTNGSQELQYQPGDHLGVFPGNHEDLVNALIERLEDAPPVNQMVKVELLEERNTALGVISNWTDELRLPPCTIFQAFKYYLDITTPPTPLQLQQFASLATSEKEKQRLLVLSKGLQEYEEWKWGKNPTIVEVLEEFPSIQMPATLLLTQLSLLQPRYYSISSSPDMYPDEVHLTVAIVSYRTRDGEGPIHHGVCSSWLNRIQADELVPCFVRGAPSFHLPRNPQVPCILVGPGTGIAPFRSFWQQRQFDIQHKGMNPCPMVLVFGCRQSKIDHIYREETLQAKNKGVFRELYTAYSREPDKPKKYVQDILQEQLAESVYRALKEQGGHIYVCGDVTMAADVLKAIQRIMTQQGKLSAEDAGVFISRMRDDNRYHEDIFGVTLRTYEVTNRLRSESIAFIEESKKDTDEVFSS

CN(CCCNCc1ccc2c(c1)OCO2)c1nc(-n2ccnc2)ns1 [Example 2, N′-Benzo[1,3]dioxol-5-ylmethyl-N-(3-imidazol-1-yl-[1,2,4]thiadiazol-5-yl)-N-methyl-propane-1,3-diamine] was tested, and the EC50 (hnNOS) was over 1000 nM and the EC50 (heNOS) was over 10000 nM.

Cc1cc(C2CCCN2C(=O)NCCc2ccc3c(c2)OCO3)nc(-n2ccnc2)n1 (stereo not drawn) [Example 4, 2-(2-Imidazol-1-yl-6-methyl-pyrimidin-4-yl)-pyrrolidine-1-carboxylic acid (2-benzo[1,3]dioxol-5-yl-ethyl)-amide] showed an EC50 (hnNOS) of 700 nM and an EC50 (heNOS) of over 10000 nM.

With Cc1cc(C2CCCN2C(=O)CNCc2ccc3c(c2)OCO3)nc(-n2ccnc2)n1 (stereo not drawn) [Example 5] the EC50 (hnNOS) was over 1000 nM and the EC50 (heNOS) was over 10000 nM.
